Tests used:
[1] = Hydrolysis of imines in deuterium oxide in the presence of co-surfactants; assay type: physicochemical; conditions: c0 10 mM
Description: The influence of the presence of (co-)surfactants on the hydrolysis of imines according to formula (I) was investigated by ^1H NMR spectroscopy in deuterium oxide (0.7 mL) as described in Example 5 with an initial imine concentration of 10 mM and 4 wt % of an additional surfactant. The following surfactants were tested: sodium dodecyl sulfate (SDS), sodium laureth sulphate (Texapon® NSO IS; trademark from BASF and commercially available from BASF), hexadecyl-trimethyl-ammonium bromide (cetrimonium bromide), 2,5,8,11,14,17,20,23,26,29,32,35,38,41,44,47,50,53,56,59,62,65,68,71,74-pentacosaoxahexaheptacontan-76-yl stearate (PEG25Monostearate), (polyethylene glycol)9,10 4-(1,1,3,3-tetramethylbutyl)-phenyl ether (Triton® X-100; trademark from Dow Chemical and commercially available from Sigma Aldrich), polyoxyethylene 20 sorbitan monooleate (Tween® 80; trademark from Uniquema, ICI Americas Inc. and commercially available from Sigma Aldrich).

[2] = Solubilizing capacity of imines for a model perfume in water; assay type: physicochemical; conditions: for Fragrance/Surfactant Weight Ratio: transparent solution of model perfume in water; for Imine: minimal value of surfactant necessary to obtain a transparent solution: water 9.0 g and model perfume 0.3 g
Description: Water (9.0 g) and the model perfume composition of Table 8 (0.3 g) are mixed under gentle agitation. The resulting solution is turbid. Imines of formula (I) are then added until a transparent solution was obtained. The ratio fragrance to surfactant indicates the solubilizing capacity of the imines wherein higher ratio indicates higher solubilizing capacity of the imine.

[3] = Surface tension of aqueous solutions (Kruss DSA 10 MK2 Drop Shape Analysis); assay type: physicochemical; conditions: for surface tension / surface activity: aqueous solution 1% wt, FIG. 2; for critical concentration (CMC) and self-aggregation in micelles: surface tension as function of concentration, FIG. 3
Description: The surface activity of aqueous solutions of typical well known surfactants at concentration of 1% wt was measured by Kruss DSA 10 MK2 Drop Shape Analysis System. In parallel, the HLB value of the surfactant molecules was calculated by using ECL model. FIG. 2 represented the correlation between the surface tension and the calculated HLB values (black circles). The curve reached a saturation value at HLB 18, which was the limit of the HLB range for the compound of formula (I). All molecules having HLB higher than 18 are not part of the present invention due to a strong water solubility and an insufficient surface activity.
The surface tension of compounds of formula (I): Imine F, Imine D, Imine E, Imine B and of comparative Imine C1, was measured as well and the data were added to FIG. 2 (grey squares). […] The HLB calculated for this molecule was higher than 18 and therefore out of the limits fixed in the present invention.
As a comparative example, the compound Imine C7 reported in Polymer 2014, vol. 55, pages 1443-1451 was synthetized (see Example 3 g)) and surface tension of the aqueous solution of 1% wt of this molecule was measured. The data was included in FIG. 2 (black triangle).
The surface tension as function of the concentration of Imine compounds F and C1 was measured and presented on FIG. 3.

[4] = Hydrolysis of imines in model formulation with Texapon NSO IS; assay type: physicochemical; conditions: Texapon NSO IS 4 wt % in deuterium oxide, c0 10 mM
Description: To investigate the hydrolysis of the imines according to formula (I), a simple model formulation in deuterium oxide was prepared. Freeze-dried Texapon® NSO IS (trademark from BASF and commercially available from BASF) (4 wt %) was dissolved in deuterium oxide (95 wt %) at room temperature. The imine according to formula (I) (1 wt %) was added to the formulation at the beginning of the experiment (t=0), the pH was measured and the NMR measurements were started.

[5] = Kinetics of hydrolysis of imines in deuterium oxide (1H NMR); assay type: physicochemical; conditions: for order of hydrolysis kinetics: t1/2 versus initial concentration
Description: (§1) The compounds according to formula (I) at different concentrations (c=10 . . . 500 mM) were individually dissolved in deuterium oxide (0.7 mL) at room temperature. The pD was measured and the hydrolysis of the imine was followed by ^1H NMR until an equilibrium was reached. The imine concentration at equilibrium was determined. Reactions with constant pD were either performed at unmodified pD (basic) or in a 4-(2-hydroxyethyl)-1-piperazineethanesulfonic acid (HEPES) buffer (slightly acidic). The data summarized in Table 3 were obtained from the measurements.

[6] = Equilibration of imines in deuterium oxide (1H NMR); assay type: physicochemical; conditions: conditions of Table 3
Description: as §1

[7] = assay type: physicochemical; conditions: pH 2.6
Text: Compounds according to formula (I) were included into citral containing microemulsions formed by mixing a buffer solution at pH=2.6 (48% citric acid and 3.2% NaOH in water), Tween® 80 (trademark from Uniquema, ICI Americas Inc. and commercially available from Sigma Aldrich) and citral in the quantities listed in Table 10. […] The two solutions contained equimolar amounts of citral. At different time intervals the different formulations (0.305 g) were extracted by adding an aqueous solution of NaCl (15%, 2.745 g) and iso-octane (3.050 g). The mixtures were stirred (at 500 rpm for 10 min) and left equilibrating (5 min) to separate into two well distinguished phases. The phases were carefully separated and the organic phase (20 μL) analysed by GC/MS. GC/MS analyses were carried out on an Agilent 6890N Network GC system and an Agilent 5973 Network MS. […] Citral was analyzed by single ion monitoring and the extracted citral concentrations were determined by external standard calibration. […] The citral concentration measured in the extraction experiments as a function of time (FIG. 1), were fitted with Equation 2. The degradation rates, as well as the initial maximum citral concentrations were determined.

[8] = Hydrolysis of imines in model formulation with Hostapur SAS 60 and Genapol LA 70; assay type: physicochemical; conditions: Hostapur SAS 60 7 wt % and Genapol LA 70 17 wt % in deuterium oxide, c0 10 mM, pD 10.4
Description: A second aqueous surfactant solution was prepared by dissolving freeze-dried sodium C14-17 sec-alkyl sulphonate (Hostapur® SAS 60; trademark from Clariant GmbH and commercially available from Clariant GmbH; 7 wt %) and freeze-dried ethoxylated C12-16 alcohols (Genapol® LA 70; trademark from Clariant GmbH and commercially available from Clariant GmbH; 17 wt %) in deuterium oxide (75 wt %) at room temperature. Then, sodium deuteroxide 40% in deuterium oxide was added until reaching a pH of 10. The imine according to formula (I) (1 wt %) was added to the formulation at the beginning of the experiment (t=0), the pH was measured and the NMR measurements were started.

**Q.** With `COCCOCCOCCOCCOCCOCCOCCOCCOCCOCCOCCOCCOCCOCCOCCOCCOCCOCCOCCOCC(C)OCC(C)OCC(C)N=CC=C(C)CCC=C(C)C` (mixture of isomers) [Imine D] as the compound, how does the “concentration at equilibrium (ceq)” value ([1]; co-surfactant Certrimmonium bromide 4 wt %, pD 10.5) read?
**A.** 4750 µM

**Q.** And the “concentration at equilibrium (ceq)” value ([1]; co-surfactant PEG25Monostearate 4 wt %, pD 10.5)?
**A.** 2790 µM

**Q.** And the “concentration at equilibrium (ceq)” value ([1]; co-surfactant SDS 4 wt %, pD 10.5)?
**A.** 8930 µM

**Q.** And the “concentration at equilibrium (ceq)” value ([1]; co-surfactant Texapon NSO IS 4 wt %, pD 10.5)?
**A.** 5960 µM

**Q.** What about the “concentration at equilibrium (ceq)” value ([1]; co-surfactant none, pD 10.5) of the same compound?
**A.** 2950 µM

**Q.** And the “Fragrance/Surfactant Weight Ratio” value [2]?
**A.** 5.2

**Q.** And the “Imine: minimal value of surfactant necessary to obtain a transparent solution” value [2]?
**A.** 14.36%

**Q.** What about the “surface tension / surface activity” value [3] of the same compound?
**A.** strong surface activity

**Q.** Which results are given for `CCCCCCC(C=NC(C)COC(C)COC(C)COC(C)COC(C)COC(C)COC(C)COC(C)COC(C)COC(C)COCCOCCOCCOCCOCCOCCOCCOCCOCCOCCOCCOCCOCCOCCOCCOCCOCCOCCOCCOCCOCCOCCOCCOCCOCCOCCOCCOCCOCCOCCOCCOC)=Cc1ccccc1` (mixture of isomers) [Imine C]?
**A.** half-time of hydrolysis (t1/2) ([4]; pD 10.5): 17.5 h; order of hydrolysis kinetics [5]: pseudo-zero order kinetics; Fragrance/Surfactant Weight Ratio [2]: 4.0; Imine: minimal value of surfactant necessary to obtain a transparent solution [2]: 11.43%

**Q.** What does the source list for `CCCCCCCC=CCCC=NC(C)COC(C)COC(C)COCCOCCOCCOCCOCCOCCOCCOCCOCCOCCOCCOCCOCCOCCOCCOCCOCCOCCOCCOC` (mixture of isomers) [Imine F]?
**A.** Fragrance/Surfactant Weight Ratio [2]: 2.7; Imine: minimal value of surfactant necessary to obtain a transparent solution [2]: 7.92%; surface tension / surface activity [3]: strong surface activity; critical concentration (CMC) and self-aggregation in micelles [3]: existence of critical concentration (CMC)

**Q.** What does the source list for `COCCOCCOCCOCCOCCOCCOCCOCCOCCOCCOCCOCCOCCOCCOCCOCCOCCOCCOCCOCC(C)OCC(C)OCC(C)N=Cc1ccc(O)c(OC)c1` (mixture of isomers) [Imine C1, reference compound]?
**A.** stability of the imine at equilibrium [6]: mostly cleaved; surface tension / surface activity [3]: high surface tension value; critical concentration (CMC) and self-aggregation in micelles [3]: absence of CMC and self-aggregation

**Q.** For `COCCOCCOCCOCCOCCOCCOCCOCCOCCOCCOCCOCCOCCOCCOCCOCCOCCOCCOCCOCCOCCOCCOCCOCCOCCOCCOCCOCCOCCOCCOCCOCC(C)OCC(C)OCC(C)OCC(C)OCC(C)OCC(C)OCC(C)OCC(C)OCC(C)OCC(C)N=CC=C(C)CCC=C(C)C` (mixture of isomers) [Imine E], which “concentration at equilibrium (ceq)” value ([1]; co-surfactant PEG25Monostearate 4 wt %, pD 10.4) is on record?
**A.** 7500 µM

**Q.** What about the “concentration at equilibrium (ceq)” value ([1]; co-surfactant PEG25Monostearate 4 wt %, phosphate buffer (pD 4.4)) of the same compound?
**A.** 6400 µM

**Q.** And the “concentration at equilibrium (ceq)” value ([1]; co-surfactant none, pD 10.4)?
**A.** 2800 µM

**Q.** And the “decrease of the citral degradation rate” value [7]?
**A.** 1.53 times

**Q.** What about the “Fragrance/Surfactant Weight Ratio” value [2] of the same compound?
**A.** 9.3

**Q.** What about the “Imine: minimal value of surfactant necessary to obtain a transparent solution” value [2] of the same compound?
**A.** 23.14%

**Q.** What about the “surface tension / surface activity” value [3] of the same compound?
**A.** strong surface activity

**Q.** What does the source list for `CCCCCCCC=CCCC=NC(C)COC(C)COC(C)COC(C)COC(C)COC(C)COC(C)COC(C)COC(C)COC(C)COCCOCCOCCOCCOCCOCCOCCOCCOCCOCCOCCOCCOCCOCCOCCOCCOCCOCCOCCOCCOCCOCCOCCOCCOCCOCCOCCOCCOCCOCCOCCOC` (mixture of isomers) [Imine G]?
**A.** Fragrance/Surfactant Weight Ratio [2]: 5.3; Imine: minimal value of surfactant necessary to obtain a transparent solution [2]: 14.68%

**Q.** Which results are given for `CCCCCCC(C=NCCc1ccc(OCCOCCOCCOCCOCCOCCOCCOCCOCCOCCOCCOC)cc1)=Cc1ccccc1` [Imine A]?
**A.** half-time of hydrolysis (t1/2) ([4]; pD 10.6): 9.2 h; half-time of hydrolysis (t1/2) ([5]; c0 10 mM, pD 10.1): 59.5 h; initial rate of hydrolysis (v0) ([5]; c0 10 mM, pD 10.1): 1.3 10^−3 mM/min; half-time of hydrolysis t1/2 (est.) [8]: 42.5 h

**Q.** Which “half-time of hydrolysis (t1/2)” value ([4]; pD 10.5) does the source give for `CCCCCCC(C=NCCOCCOCCOCCOCCOCCOCCOCCOCCOCCOCCOC)=Cc1ccccc1` [Imine C5] here?
**A.** 4.3 h

**Q.** What about the “initial rate of hydrolysis (v0)” value ([4]; pD 10.5) of the same compound?
**A.** 35.4 10^−3 mM/min

**Q.** And the half-time of hydrolysis ([5]; at all concentrations)?
**A.** around 5 h

**Q.** And the “half-time of hydrolysis (t1/2)” value ([5]; c0 10 mM, pD 10.5)?
**A.** 4.56 h

**Q.** What about the “initial rate of hydrolysis (v0)” value ([5]; c0 10 mM, pD 10.5) of the same compound?
**A.** 14.8 10^−3 mM/min

**Q.** And the “half-time of hydrolysis (t1/2)” value ([5]; c0 25 mM, pD 10.5)?
**A.** 8.4 h

**Q.** And the “initial rate of hydrolysis (v0)” value ([5]; c0 25 mM, pD 10.5)?
**A.** 23.7 10^−3 mM/min

**Q.** What about the “half-time of hydrolysis (t1/2)” value ([5]; c0 100 mM, pD 10.4) of the same compound?
**A.** 5.28 h

**Q.** What about the “initial rate of hydrolysis (v0)” value ([5]; c0 100 mM, pD 10.4) of the same compound?
**A.** 856 10^−3 mM/min

**Q.** What about the “order of hydrolysis kinetics” value [5] of the same compound?
**A.** pseudo-first order kinetics

From US11344493B2, “Cleavable surfactant” (FIRMENICH SA, priority 2017, dated 2022)
